Patent publication US20140057915A1, “KINASE INHIBITORS” (TOPIVERT PHARMA LIMITED, priority 2012, published 2014)
pEC50, pIC50: −log10 of the molar value.

Key:
[1] = tested on: TNFα release, d-U937 cells; assay: LPS-induced TNFα release in d-U937 cells; assay type: cell-based; details: Homo sapiens, dU937; relative to 10 μg/mL BIRB796; Table 4c1; read-out: LPS Induced Release of Cytokine in d-U937 Cells, TNFα REC50
Procedure, shortened: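 Sandwich ELISA quantifies cytokine in supernatants after 4 hr LPS challenge (0.1 μg/mL) of PMA-differentiated (100 ng/mL, 48–72 hr) U937 macrophages given compound 2 hr beforehand. REC50 derived from concentration-response curve, inhibition calculated relative to vehicle.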

GSK3α [2] = biological target: T1, GSK3α (Homo sapiens, UniProt P49840); assay: GSK 3α enzyme inhibition (FRET), Method 1; assay type: biochemical; details: Table 4a1
T1 sequence (P49840 whole entry): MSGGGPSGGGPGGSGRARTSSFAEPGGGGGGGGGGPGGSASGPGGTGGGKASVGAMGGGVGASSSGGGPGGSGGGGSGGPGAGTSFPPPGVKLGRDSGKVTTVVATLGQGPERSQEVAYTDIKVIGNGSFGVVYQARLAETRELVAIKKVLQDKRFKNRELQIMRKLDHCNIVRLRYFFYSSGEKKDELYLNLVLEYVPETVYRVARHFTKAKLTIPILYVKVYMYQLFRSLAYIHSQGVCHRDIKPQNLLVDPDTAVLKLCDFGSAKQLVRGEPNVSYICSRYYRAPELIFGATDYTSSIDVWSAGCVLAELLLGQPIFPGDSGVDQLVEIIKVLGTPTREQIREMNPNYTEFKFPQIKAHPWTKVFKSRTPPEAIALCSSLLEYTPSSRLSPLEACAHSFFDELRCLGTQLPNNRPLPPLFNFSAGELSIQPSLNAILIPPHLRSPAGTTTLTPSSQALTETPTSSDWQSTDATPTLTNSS
Procedure, shortened: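 Inhibition is scored from phosphorylation of a dual-labelled synthetic peptide, measured by FRET after protease cleavage of unphosphorylated substrate. Incubations are 2 hr compound with enzyme, then 1 hr kinase reaction.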

cSrc = cSrc (Homo sapiens, UniProt P12931); assay: c-Src enzyme inhibition (FRET); assay type: biochemical; details: Table 4a1
Sequence of cSrc (P12931 whole entry): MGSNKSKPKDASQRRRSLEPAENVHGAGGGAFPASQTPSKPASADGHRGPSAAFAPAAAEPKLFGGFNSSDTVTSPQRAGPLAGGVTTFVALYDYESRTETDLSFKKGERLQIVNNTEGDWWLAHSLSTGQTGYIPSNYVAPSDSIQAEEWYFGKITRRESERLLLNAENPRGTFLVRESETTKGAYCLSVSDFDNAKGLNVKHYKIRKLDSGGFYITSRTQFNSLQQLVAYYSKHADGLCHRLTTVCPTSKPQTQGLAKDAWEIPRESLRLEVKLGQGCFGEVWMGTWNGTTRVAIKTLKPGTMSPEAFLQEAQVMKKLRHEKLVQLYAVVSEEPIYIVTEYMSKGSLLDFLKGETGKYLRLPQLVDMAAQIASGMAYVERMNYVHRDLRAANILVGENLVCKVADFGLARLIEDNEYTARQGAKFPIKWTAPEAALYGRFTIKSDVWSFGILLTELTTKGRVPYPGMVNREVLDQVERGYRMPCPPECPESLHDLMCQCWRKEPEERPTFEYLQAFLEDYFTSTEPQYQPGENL
Procedure, shortened: (§1)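 2 hr RT enzyme + cpd (added solns 4/0.4/0.04/0.004 μg/mL); + FRET peptide (8 μM soln) + ATP soln (c-Src 800 μM, Syk 60 μM), 1 hr; protease development 1 hr; read donor/acceptor emission ratio.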

[3] = tested on: IL-8 release, d-U937 cells; assay: LPS-induced IL-8 release in d-U937 cells; assay type: cell-based; details: Homo sapiens, dU937; Table 4c1; read-out: LPS Induced Release of Cytokine in d-U937 Cells, IL-8 IC50
Procedure, shortened: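 IL-8 release after a 4 hr challenge with LPS (0.1 μg/mL, E. coli 0111:B4) following a 2 hr compound pretreatment. Cells were human U937 monocytes differentiated to macrophage-type with PMA 100 ng/mL for 48–72 hr. Relative 50% effective concentration derived from concentration–response data.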

d-U937 cells = assay: Cell viability: MTT assay; assay type: cell-based, human; details: 1 μg/mL
Procedure, shortened: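 MTT reduction (1 h, DMSO solubilisation, A550) measured after compound treatment at 1 or 10 μg/mL of differentiated U937 cells for 4 h (5% FCS RPMI1640) or 24 h (10% FCS). Percentage viability loss computed relative to 0.5% DMSO vehicle, with increases tabulated as negative values.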

Syk = Syk (Homo sapiens, UniProt P43405); assay: Syk enzyme inhibition (FRET); assay type: biochemical; details: Table 4a1
Procedure, shortened: as §1

PBMC cells = assay: Cell mitosis assay; assay type: cell-based; details: Homo sapiens, read-out: % Inhibition of mitosis in PBMC cells at 5 μg/mL
Method: PBMCs from healthy subjects are separated from whole blood (Quintiles, London, UK) using a density gradient (Histopaque®-1077, Sigma-Aldrich, Poole, UK). The PBMCs (3 million cells per sample) are subsequently treated with 2% PHA (Sigma-Aldrich, Poole, UK) for 48 hr, followed by a 20 hr exposure to varying concentrations of test compounds. At 2 hr before collection, PBMCs are treated with demecolcine (0.1 μg/mL; Invitrogen, Paisley, UK) to arrest cells in metaphase. […] Fluorescence is observed using an ATTUNE flow cytometer (Invitrogen, Paisley, UK), gating for lymphocytes.

[4] = tested on: ICAM-1 expression, BEAS2B cells; assay: Poly I:C-induced ICAM-1 expression in BEAS2B cells; assay type: cell-based; details: Homo sapiens, BEAS-2B; read-out: Poly IC induced ICAM1 in BEAS2B, IC50
Procedure, shortened: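 Cell-based ELISA for surface ICAM-1 in human BEAS2B cells 18 h after transfection with the RNA-virus mimic poly I:C (1 μg/mL, with Oligofectamine), compounds added 2 h beforehand. OD450–655 divided by Crystal Violet OD595 per well; percent inhibition relative to vehicle.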

GSK3α [5] = biological target: T1, GSK3α; assay: GSK 3α enzyme inhibition (FRET), Method 2; assay type: biochemical; details: Table 4a2, different laboratory
IL-2 release, PBMCs = assay: IL-2 release in CD3/CD28 stimulated PBMC cells; assay type: cell-based; details: Homo sapiens, read-out: IC50 Values for Inhibition of Cytokine Release, PBMCs, IL-2
Method: (§2) (c) IL-2 and IFN Gamma Release in CD3/CD28 Stimulated PBMC Cells
(§3) PBMCs from healthy subjects are separated from whole blood using a density gradient (Lymphoprep, Axis-Shield Healthcare). Cells are added to a 96 well plate pre-coated with a mixture of […] monoclonal antibodies (0.3 ug/ml eBioscience and 3 ug/ml BD Pharmingen respectively). Compound at the desired concentration is then added to the wells and the plate left for 3 days under normal tissue culture conditions. Supernatants are harvested and IL-2 and IFN gamma release determined by Sandwich ELISA (Duo-set, R&D System). The IC50 is determined from the dose response curve.

IL-8 release, PBMCs = assay: LPS-induced IL-8 release in PBMC cells; assay type: cell-based; details: Homo sapiens, LPS stimulated, read-out: IC50 Values for Inhibition of Cytokine Release, PBMCs, IL-8
Method: (b) LPS-Induced TNFα/IL-8 Release in PBMC Cells
Peripheral blood mononuclear cells (PBMCs) from healthy subjects are separated from whole blood using a density gradient (Lymphoprep, Axis-Shield Healthcare). The PBMCs are seeded in 96 well plates and treated with compounds at the desired concentration for 2 hours before addition of 1 ng/ml LPS (Escherichia Coli 0111:B4 from Sigma Aldrich) for 24 hours under normal tissue culture conditions (37° C., 5% CO2). The supernatant is harvested for determination of […] concentrations by sandwich ELISA (Duo-set, R&D systems) and read on the fluorescence microplate reader (Varioskan® Flash, ThermoFisher Scientific).

IFN gamma release, PBMCs = assay: IFN gamma release in CD3/CD28 stimulated PBMC cells; assay type: cell-based; details: Homo sapiens, read-out: IC50 Values for Inhibition of Cytokine Release, PBMCs, IFNγ
Method: as §2, §3

COc1ccc(-n2nc(C(C)C)cc2NC(=O)Nc2ccc(Oc3ccnc(Nc4cc(OC)cc(C(=O)NCCO)c4)n3)c3ccccc23)cc1 [Example 65, N-(2-hydroxyethyl)-3-((4-((4-(3-(3-isopropyl-1-(4-methoxyphenyl)-1H-pyrazol-5-yl)ureido)naphthalen-1-yl)oxy)pyrimidin-2-yl)amino)-5-methoxybenzamide]
pEC50 [1]: 8.77
pIC50 (GSK3α [2]): < 4.85
pIC50 (cSrc): 8.10
pIC50 [3]: 9.22
Cell viability at time point in d-U937 cells, 4 h (d-U937 cells): −ve (−ve and +ve indicate that the value is below and above respectively, the no significant effect threshold, defined as 30% inhibition at 1 μg/mL at the time point indicated)
Cell viability at time point in d-U937 cells, 24 h (d-U937 cells): −ve (−ve and +ve indicate that the value is below and above respectively, the no significant effect threshold, defined as 30% inhibition at 1 μg/mL at the time point indicated)
pIC50 (Syk): 7.21
inhibition at 5 µg/mL (PBMC cells): 36.7%
pIC50 [4]: 8.08

C#Cc1cc(Nc2nccc(Oc3ccc(NC(=O)Nc4cc(C(C)(C)C)nn4-c4ccc(C)cc4)c4ccccc34)n2)cc(C(=O)NC(C)(C)CN2CCOCC2)c1 [Example 82, 3-((4-((4-(3-(3-(tert-Butyl)-1-(p-tolyl)-1H-pyrazol-5-yl)ureido)naphthalen-1-yl)oxy)pyrimidin-2-yl)amino)-5-ethynyl-N-(2-methyl-1-morpholinopropan-2-yl)-benzamide]
pIC50 (GSK3α [5]): 4.92
pIC50 (IL-2 release, PBMCs): 7.43
pIC50 (IL-8 release, PBMCs): 8.15
pIC50 (IFN gamma release, PBMCs): 8.41
inhibition at 5 µg/mL (PBMC cells): -6.3%

Cc1ccc(-n2nc(C(C)(C)C)cc2NC(=O)Nc2ccc(Oc3ccnc(Nc4cccc(C(N)=O)c4)n3)c3ccccc23)cc1 [Example 2, 3-((4-((4-(3-(3-(tert-Butyl)-1-(p-tolyl)-1H-pyrazol-5-yl)ureido)naphthalen-1-yl)oxy)pyrimidin-2-yl)amino)benzamide]
pEC50 [1]: 9.10
pIC50 (GSK3α [2]): 5.90
pIC50 (cSrc): 8.30
pIC50 [3]: 8.35
Cell viability at time point in d-U937 cells, 4 h (d-U937 cells): −ve (−ve and +ve indicate that the value is below and above respectively, the no significant effect threshold, defined as 30% inhibition at 1 μg/mL at the time point indicated)
Cell viability at time point in d-U937 cells, 24 h (d-U937 cells): −ve (−ve and +ve indicate that the value is below and above respectively, the no significant effect threshold, defined as 30% inhibition at 1 μg/mL at the time point indicated)
pIC50 (Syk): 6.60
inhibition at 5 µg/mL (PBMC cells): 46.5%
pIC50 [4]: 9.00

COc1cc(Nc2nccc(Oc3ccc(NC(=O)Nc4cc(C(C)C)nn4-c4ccc(C)cc4)c4ccccc34)n2)cc(C(=O)N2CCOCC2)c1 [Example 12, 1-(3-Isopropyl-1-(p-tolyl)-1H-pyrazol-5-yl)-3-(4-((2-((3-methoxy-5-(morpholine-4-carbonyl)phenyl)amino)pyrimidin-4-yl)oxy)naphthalen-1-yl)urea]
pEC50 [1]: 9.30
pIC50 (GSK3α [2]): 6.29
pIC50 (cSrc): 8.30
pIC50 [3]: 9.00
Cell viability at time point in d-U937 cells, 4 h (d-U937 cells): −ve (−ve and +ve indicate that the value is below and above respectively, the no significant effect threshold, defined as 30% inhibition at 1 μg/mL at the time point indicated)
Cell viability at time point in d-U937 cells, 24 h (d-U937 cells): −ve (−ve and +ve indicate that the value is below and above respectively, the no significant effect threshold, defined as 30% inhibition at 1 μg/mL at the time point indicated)
pIC50 (Syk): 7.80
inhibition at 5 µg/mL (PBMC cells): 27.8%
pIC50 [4]: 8.60

Cc1ccc(-n2nc(C(C)C)cc2NC(=O)Nc2ccc(Oc3ccnc(Nc4cc(C)cc(C(=O)NCCN5CCOCC5)c4)n3)c3ccccc23)cc1 [Example 44, 3-((4-((4-(3-(3-isopropyl-1-(p-tolyl)-1H-pyrazol-5-yl)ureido)naphthalen-1-yl)oxy)pyrimidin-2-yl)amino)-5-methyl-N-(2-morpholinoethyl)benzamide]
pEC50 [1]: 9.70
pIC50 (GSK3α [2]): 5.40
pIC50 (cSrc): 8.05
pIC50 [3]: 9.52
Cell viability at time point in d-U937 cells, 4 h (d-U937 cells): −ve (−ve and +ve indicate that the value is below and above respectively, the no significant effect threshold, defined as 30% inhibition at 1 μg/mL at the time point indicated)
Cell viability at time point in d-U937 cells, 24 h (d-U937 cells): −ve (−ve and +ve indicate that the value is below and above respectively, the no significant effect threshold, defined as 30% inhibition at 1 μg/mL at the time point indicated)
pIC50 (Syk): 7.77
inhibition at 5 µg/mL (PBMC cells): 37.2%
pIC50 [4]: 8.72

Cc1ccc(-n2nc(C(C)C)cc2NC(=O)Nc2ccc(Oc3ccnc(Nc4cccc(C(=O)NCCN5CCOCC5)c4)n3)c3ccccc23)cc1 [Example 19, 3-((4-((4-(3-(3-isopropyl-1-(p-tolyl)-1H-pyrazol-5-yl)ureido)naphthalen-1-yl)oxy)pyrimidin-2-yl)amino)-N-(2-morpholinoethyl)benzamide]
pEC50 [1]: 9.52
pIC50 (GSK3α [2]): 5.91
pIC50 [3]: 9.70
Cell viability at time point in d-U937 cells, 4 h (d-U937 cells): −ve (−ve and +ve indicate that the value is below and above respectively, the no significant effect threshold, defined as 30% inhibition at 1 μg/mL at the time point indicated)
Cell viability at time point in d-U937 cells, 24 h (d-U937 cells): −ve (−ve and +ve indicate that the value is below and above respectively, the no significant effect threshold, defined as 30% inhibition at 1 μg/mL at the time point indicated)
pIC50 (Syk): 8.40
inhibition at 5 µg/mL (PBMC cells): 25.3%

COc1cc(Nc2nccc(Oc3ccc(NC(=O)Nc4cc(C(C)C)nn4-c4ccc(C)cc4)c4ccccc34)n2)cc(C(=O)NCCN(C)C)c1 [Example 5, N-(2-(Dimethylamino)ethyl)-3-((4-((4-(3-(3-isopropyl-1-(p-tolyl)-1H-pyrazol-5-yl)ureido)naphthalen-1-yl)oxy)pyrimidin-2-yl)amino)-5-methoxybenzamide]
pEC50 [1]: 9.70
pIC50 (GSK3α [2]): 5.83
pIC50 (cSrc): 8.70
pIC50 [3]: 8.89
Cell viability at time point in d-U937 cells, 4 h (d-U937 cells): −ve (−ve and +ve indicate that the value is below and above respectively, the no significant effect threshold, defined as 30% inhibition at 1 μg/mL at the time point indicated)
Cell viability at time point in d-U937 cells, 24 h (d-U937 cells): −ve (−ve and +ve indicate that the value is below and above respectively, the no significant effect threshold, defined as 30% inhibition at 1 μg/mL at the time point indicated)
pIC50 (Syk): 8.15
inhibition at 5 µg/mL (PBMC cells): 28.3%
pIC50 [4]: 9.70
